{
  "source": "paper PMC4472604",
  "about": "(ACS chemical neuroscience, 2015)",
  "key": {"[1]": {"biological_target": "T1, DOR (Mus musculus, UniProt P32300)", "experiment": "[125I]-3 saturation binding in DOR-CHO membranes", "conditions": "mean ± SEM"}, "[2]": {"biological_target": "T1, DOR", "experiment": "Competition binding against [125I]-3"}, "[3]": {"biological_target": "KOR (Mus musculus, UniProt P33534)", "experiment": "Competition binding against [125I]BNtxA in KOR-CHO membranes"}, "[4]": {"biological_target": "6TM/E11 sites (Mus musculus, UniProt P42866)", "format": "binding"}, "[5]": {"biological_target": "MOR (Mus musculus, UniProt P42866)", "experiment": "Competition binding against [125I]BNtxA in MOR-CHO membranes"}},
  "data": [
    {"compound": "Tyr-D-Ala-(p-^125I)Phe-Glu-Ile-Ile-Gly-NH2 [[^125I]-3]", "values": [
      {"measurement": "Bmax", "setting": "[1]", "value": "196.97 ± 12.44", "unit": "fmol/mg"}
    ]},
    {"compound": "Oc1ccc2c3c1O[C@H]1c4oc5ccccc5c4C[C@@]4(O)[C@@H](C2)N(CC2CC2)CC[C@]314", "note": "[Naltriben]", "values": [
      {"measurement": "Ki", "setting": "[2]", "value": "0.14 ± 0.04", "unit": "nM"}
    ]},
    {"compound": "Oc1ccc2c3c1O[C@H]1c4[nH]c5ccccc5c4C[C@@]4(O)[C@@H](C2)N(CC2CC2)CC[C@]314", "note": "[Naltrindole]", "values": [
      {"measurement": "Ki", "setting": "[2]", "value": "0.79 ± 0.16", "unit": "nM"}
    ]},
    {"compound": "CC(C)[C@H](NC(=O)[C@H](CCC(=O)O)NC(=O)[C@H](Cc1ccccc1)NC(=O)[C@@H](C)NC(=O)[C@@H](N)Cc1ccc(O)cc1)C(=O)N[C@H](C(=O)NCC(N)=O)C(C)C", "note": "[[D-Ala^2]deltorphin II, Tyr-D-Ala-Phe-Glu-Val-Val-Gly-NH2]", "values": [
      {"measurement": "Ki", "setting": "[3]", "value": "> 1000", "unit": "nM"},
      {"measurement": "Ki", "setting": "[4]", "value": "> 1000", "unit": "nM"},
      {"measurement": "Ki", "setting": "[5]", "value": "> 1000", "unit": "nM"}
    ]}
  ]
}
